According to US4321274A, “Substituted 1-(cinnamylideneamino)-3-benzyli-deneaminoguanidines active against Giardia lamblia and Trichomonas vaginalis” (priority 1980, dated 1982):
≈ marks a conversion by molar mass, not a printed value. Where two headings read alike, the source gives them in different places.

How the values were obtained:
[1] = tested on: Giardia lamblia; assay: In vitro anti-G. lamblia activity (50% inhibition of growth, viable cell count); format: cell-based; conditions: Giardia duodenalis, 37° C., anaerobic, about 16-24 hrs (Example 1: 24 hours), vs DMSO controls, read-out: Anti-G. lamblia ED50
Procedure: (§1) About 1.0-2.0 ml of a nutrient medium, for example, the modified Diamond's TPS medium at pH 7.05, together with about 10% by volume of heat-inactivated serum and about 1% by volume of antibiotic-antimycotic solution is placed in each well of a multiwell plate. To this mixture, an aliquot of a suspension of G. lamblia cells containing about […] is added. Subsequently, each well is inoculated with a known concentration of one of the active compounds, for example, 1-(3,4-dichlorocinnamylideneamino)-3-(4-cyanobenzylideneamino)guanidine. The multiwell plate containing the individual culture samples is incubated under anaerobic conditions at about 37° C. for about 16-24 hrs. The number of viable cells remaining in each well are then counted, such as with a hemacytometer. The percentage of survival is determined by comparison to controls inoculated with DMSO (dimethylsulfoxide) and the effective concentration (in parts per million) for 50% inhibition of growth (ED50) is determined. It is established that the lower the number of the value of ED50, the higher the activity of the active compound.
In each well of a multiwell plate is placed 1.4 ml of media mix containing Diamond's TPS medium (see Table 2) at pH 7.05, 10% by volume of heat-inactivated fetal bovine serum, and 1% by volume of an antibiotic-antimycotic solution (see Table 3). A suspension of Giardia lamblia is centrifuged at 2,500 xg. for 6 minutes. The cells are resuspended in a small volume of the Diamond's medium, counted, and each well inoculated with approximately 10^6 organisms. A stock solution of 1-(4-chlorocinnamylideneamino)-3-(3,4-dichlorobenzylideneamino)guanidine in dimethylsulfoxide is made at a concentration of 150 μg/ml. The wells are then inoculated with various concentrations of the drug. The plates are incubated for 24 hours at 37° C. in an anaerobic Gas Pak jar. After 24 hours of incubation each well is mixed and counted for viable organisms using a hemacytometer. The percentage of survival is determined by comparing the treated wells to controls treated with dimethylsulfoxide.
Employing substantially the similar procedure as described in Example 1 but substituting for 1-(4-chlorocinnamylideneamino)-3-(3,4-dichlorobenzylideneamino)guanidine used therein other active compounds, there are obtained similar results indicating the anti- G. lamblia activities of the compounds included above in Table 1.

[2] = tested on: T. vaginalis 30001; assay: In vitro anti-T. vaginalis activity (50% inhibition of growth); format: cell-based, Trichomonas vaginalis; conditions: for IC50: Trichomonas vaginalis
Procedure: The activity of these compounds against Giardia lamblia and Trichomonas vaginalis are shown by the following test:
as §1
Employing essentially the same method of Example 1, centrifuged cells of T. vaginalis 30001 are inoculated with 1-(4-chlorocinnamylideneamino)-3-(3,4-dichlorobenzylideneamino)guanidine at 37° C. for 24 hours.
Similarly, previously described compounds (2) to (10) and the pharmaceutically acceptable salts thereof an active anti- T. vaginalis agents as shown in Table 1.

[3] = tested on: Giardia lamblia; conditions: New York Times, June 10, 1980; cited from earlier work
[4] = tested on: Trichomonas vaginalis; conditions: has been reported; cited from earlier work
[5] = tested on: animals; conditions: cited from earlier work
[6] = cited from earlier work
[7] = in vitro, 37° C., 24 hours, Table 1, read-out: Anti-T. vaginalis ED50

Row | SMILES | IC50 [1] [µg/mL] | IC50 [2, 7] [µg/mL] | other results
1 | Cc1ncc([N+](=O)[O-])n1CCO [Flagyl (metronidazole), metronidazole] | 6.2 (≈ 36.2 µM) | < 1 | treatment of giardiasis [3]: successfully treated; therapy of trichomoniasis [4]: Successful therapy; carcinogenicity [5]: carcinogenic in animals; adverse side effects ([6]; in vivo): known to cause adverse side effects
2 | CN(N=Cc1ccc(Cl)cc1)C(=N)NN=CC=Cc1ccc(C(F)(F)F)cc1 [(2), 1-(4-trifluoromethylcinnamylideneamino)-3-(4-chlorobenzylideneamino)-3-methylguanidine] | 0.8 (≈ 1.96 µM) | 2.75 (≈ 6.74 µM) | –
3 | N#Cc1ccc(C=NNC(=N)NN=CC=Cc2ccc(Cl)c(Cl)c2)cc1 [(7), 1-(3,4-dichlorocinnamylideneamino)-3-(4-cyanobenzylideneamino)guanidine] | 0.57 (≈ 1.48 µM) | 1 (≈ 2.6 µM) | –
4 | CN(N=Cc1ccc([N+](=O)[O-])cc1)C(=N)NN=CC=Cc1ccc(C(F)(F)F)cc1 [(10), 1-(4-trifluoromethylcinnamylideneamino)-3-(4-nitrobenzylideneamino)-3-methyl-guanidine] | 1 (≈ 2.39 µM) | 3.25 (≈ 7.77 µM) | –
5 | O=C1OCCN1/N=C/c1ccc([N+](=O)[O-])o1 [furazolidone] | – | – | treatment of giardiasis [3]: successfully treated; adverse side effects ([6]; New York Times, June 10, 1980): known to cause adverse side effects
6 | N=C(NN=CC=Cc1ccc(Cl)cc1)NN=Cc1ccc(Cl)c(Cl)c1 [(1), 1-(4-chlorocinnamylideneamino)-3-(3,4-dichlorobenzylideneamino)guanidine] | 1.1 (≈ 2.79 µM) | – | IC50 ([2]; Example 2, 37° C. for 24 hours, unit inferred, read-out: ED50 value, anti-T. vaginalis): 2.25 µg/mL (≈ 5.7 µM); anti-T. vaginalis activity in words ([2]; in vitro, method of Example 1/2): effective anti- T. vaginalis agent
7 | CCN(CC)CCCC(C)Nc1c2ccc(Cl)cc2nc2ccc(OC)cc12 (stereo not shown) [Atabrine] | – | – | treatment of giardiasis [3]: successfully treated; adverse side effects ([6]; in vivo): known to cause adverse side effects
8 | CN(N=Cc1ccc(Cl)cc1)C(=N)NN=CC=Cc1ccc(Cl)c(Cl)c1 [(4), 1-(3,4-dichlorocinnamylideneamino)-3-(4-chlorobenzylideneamino)-3-methyl-guanidine] | 0.58 (≈ 1.42 µM) | 2.5 (≈ 6.12 µM) | –
9 | CN(N=Cc1ccc(C(F)(F)F)cc1)C(=N)NN=CC=Cc1ccc(Cl)cc1 [(9), 1-(4-chlorocinnamylideneamino)-3-(4-trifluoromethylbenzylideneamino)-3-methyl-guanidine] | 1.3 (≈ 3.19 µM) | 2.38 (≈ 5.84 µM) | –
10 | CN(N=Cc1ccc(C(F)(F)F)cc1)C(=N)NN=CC=Cc1ccc(C#N)cc1 [(5), 1-(4-cyanocinnamylideneamino)-3-(4-trifluoromethylbenzylideneamino)-3-methyl-guanidine] | 1.5 (≈ 3.77 µM) | 3.25 (≈ 8.16 µM) | –
11 | CN(N=Cc1ccc(C(F)(F)F)cc1)C(=N)NN=CC=Cc1ccc(Cl)c(Cl)c1 [(6), 1-(3,4-dichlorocinnamylideneamino)-3-(4-trifluoromethylbenzylideneamino)-3-methyl-guanidine] | 0.73 (≈ 1.65 µM) | 2.67 (≈ 6.04 µM) | –
12 | CN(N=Cc1ccc(Cl)cc1)C(=N)NN=CC=Cc1ccc(Cl)cc1 [(8), 1-(4-chlorocinnamylideneamino)-3-(4-chlorobenzylideneamino)-3-methyl-guanidine] | 1.4 (≈ 3.74 µM) | 2.67 (≈ 7.13 µM) | –
13 | CN(N=Cc1ccc(Cl)cc1)C(=N)NN=CC=Cc1ccc(C#N)cc1 [(3), 1-(4-cyanocinnamylideneamino)-3-(4-chlorobenzylideneamino)-3-methyl-guanidine] | 0.85 (≈ 2.33 µM) | 3.25 (≈ 8.91 µM) | –
